Literature values in patent US20070141100A1, “Drug-eluting biodegradable stent” (priority 2003, published 2007).
“Also recorded” adds a separate entry of the source.

Columns and labels:
[1] = system: renal transplant recipients; conditions: everolimus trough serum concentrations above 7.8 ng/ml
neointimal proliferation = conditions: animal studies, compared with a control bare metal stent
3T3 fibroblasts = conditions: in vitro
[2] = system: Chinese hamster ovary (CHO-K1) cells; conditions: in vitro
mice = conditions: i.v.
[3] = glutaraldehyde used to crosslink materials

CO[C@H]1C[C@@H]2CC[C@@H](C)[C@@](O)(O2)C(=O)C(=O)N2CCCC[C@H]2C(=O)O[C@H]([C@H](C)C[C@@H]2CC[C@@H](OCCO)[C@H](OC)C2)CC(=O)[C@H](C)/C=C(\C)[C@@H](O)[C@@H](OC)C(=O)[C@H](C)C[C@H](C)/C=C/C=C/C=C/1C [Everolimus]
rate of thrombocytopenia [1]: 17% | solubility in water: poorly soluble in water | reduction of neointimal proliferation (neointimal proliferation): 50%

CO[C@H]1C[C@@H]2CC[C@@H](C)[C@@](O)(O2)C(=O)C(=O)N2CCCC[C@H]2C(=O)O[C@H]([C@H](C)C[C@@H]2CC[C@@H](O)[C@H](OC)C2)CC(=O)[C@H](C)/C=C(\C)[C@@H](O)[C@@H](OC)C(=O)[C@H](C)C[C@H](C)/C=C/C=C/C=C/1C [Sirolimus]
solubility in water: non-water soluble

CC(=O)O[C@H]1C(=O)[C@@]2(C)[C@H]([C@H](OC(=O)c3ccccc3)[C@]3(O)C[C@H](OC(=O)[C@H](O)[C@@H](NC(=O)c4ccccc4)c4ccccc4)C(C)=C1C3(C)C)[C@]1(OC(C)=O)CO[C@@H]1C[C@@H]2O [Taxol, paclitaxel]
solubility in water: practically water insoluble

COC(=O)C1=CO[C@@H](O)[C@@H]2C(CO)=CC[C@H]12 [genipin]
cytotoxicity compared with glutaraldehyde (3T3 fibroblasts): substantially less cytotoxic than glutaraldehyde; also recorded: significantly less cytotoxic than glutaraldehyde | clastogenic response (genotoxicity) [2]: does not cause clastogenic response | LD50 (mice): 382 mg/k

O=CCCCC=O [glutaraldehyde]
crosslinking concentration giving a persistent foreign-body reaction [3]: above 0.05% | cytotoxic at concentrations greater than (tissue culture): 10-25 ppm | cytotoxic at concentrations as low as (tissue culture; in tissue culture): 3 ppm
